Measurements: patent US7078382B1, “Modulation of eNOS activity and therapeutic uses thereof” (Genentech, Inc., priority 1999, dated 2006)
“Also recorded” adds a separate entry of the source.

Tests used:
[1] = system: eNOS expression; experiment: eNOS expression by Western blot in ACE cells; format: cell-based, bovine; details: for eNOS expression with KDR-specific VEGF variants / eNOS expression with angiogenic factors: 500 pM; for eNOS expression with VEGF forms and receptor-selective variants: equal concentrations, two days; for effect of signalling inhibitors on VEGF-induced eNOS expression: with 500 pM rhVEGF; for eNOS expression, time course: 0-5 days, VEGF alone or co-incubated with L-NAME (2 mM) or SNAP; for effect on VEGF-induced eNOS expression, KDR tyrosine kinase inhibitor: co-incubated with 500 pM rhVEGF
Description: At the end of incubation, total cell lysates were prepared, and eNOS protein levels were determined by Western blot analysis.
Bovine adrenal cortex capillary endothelial cells (ACE) were prepared and maintained as previously described (Ferrara et.al., 1989 Biochem. Biophys. Res. Commun. 161:851–858). Briefly, cells were plated onto 6-well tissue culture plates (Costar) and grown in low glucose Dulbecco's modified Eagle's medium, supplemented with 2 mM […] (Life Technologies), 10% bovine calf serum (HyClone Lab., Inc.) and 100 μg/ml Penicillin/Streptomycin (Life Technologies). ACE cells were used between passages 4 and 8.
Medium was changed every 24 hours.
The methods for cell lysis and Western blot (WB) have been described in Shen et al., 1998 J. Biol. Chem. 273:29979–29985. A monoclonal anti-eNOS antibody was used at 1:2500 to probe eNOS protein. A secondary antibody conjugated with horseradish peroxidase (1:2500) (Zymed) and an enhanced chemiluminescent kit (Amershal Pharmacia Biotech) were used to visualize the eNOS immunoreactive bands. Multiple exposures of films were obtained to determine the optical exposure time. The protein bands were scanned by a densitometer and the relative intensities were quantified using IMAGEQUANT® software (Molecular Dynamics).
(§1) Confluent ACE cells were incubated with 500 pM rhVEGF. Total cell lysates were prepared as described above. Equal amounts of protein were denatured under reducing conditions and separated in a 10% Novex mini gel and transferred to PVDF membrane. eNOS protein signals were visualized by ECL and quantified using densitometry.

[2] = target: Flt-1 receptor; experiment: Flt-1 receptor binding ELISA (inhibition of biotinylated native VEGF binding to Flt-IgG); details: first figure of the cell, read-out: Binding to FLT-1 Receptor, concentration at midpoint absorbance
Description: Receptor binding assays were performed in 96-well immunoplates (Maxisorp, Nunc-Immunoplate, Nalge Nunc International, Rochester, N.Y.). Each well was coated with 100 μl of a solution containing 2 μg/ml of rabbit F(ab′)2 to human IgG Fc (Jackson ImmunoResearch, West Grove, Pa.) in 50 mM carbonate buffer at pH 9.6 and incubated at 4° C. overnight. The supernatant was then discarded, the wells were washed three times in washing buffer (0.05% Tween 20 in PBS), and the plate was blocked (150 μl per well) with block buffer (0.5% BSA, 0.01% thimerosal in PBS) at room temperature for one hour. The supernatant was discarded, and the wells were washed.
The wells were filled with 100 μl of a solution containing Flt-IgG (a chimeric Flt-human Fc molecule) at 50 ng/ml in assay buffer (0.5% BSA, 0.05% Tween 20 in PBS). The wells were incubated at room temperature for 1 hour and then washed three times in wash buffer (0.05% Tween 20 in PBS).
Aliquots of the mixture (100 μl) were added to the precoated microtiter wells and the plate was incubated for 2 hours at room temperature. […] Absorbance was read at 450 nm on a Vmax plate reader (Molecular Devices, Menlo Park, Calif.).
Titration curves were fit with a four-parameter nonlinear regression curve-fitting program (KaleidaGraph, Synergy Software, Reading, Pa.).

[3] = system: eNOS activity; details: ACE cells
Description: as §1

[4] = system: PAE/FLT-1 cells; details: 500 pM rhVEGF, 2 days
Description: Porcine aorta endothelial (PAE) cells, and receptor transfected PAE cells (PAE/KDR and PAE/FLT-1) were provided by Napoleone Ferrara (Genentech, Inc.) and cultured in Ham's F-12 medium containing 10% FBS (for PAE), or plus 250 μg/ml G480 (for PAE/KDR and PAE/FLT-1).
PAE, PAE/KDR and PAE/Flt-1 cells were incubated with or without 500 pM rhVEGF for 2 days. eNOS was detected as described above for Example 1. Other materials and methods used in this study were as described above for Example 1.

[5] = system: PKC; details: ACE cells, rhVEGF 500 pM, 10 minutes
Description: Cytosolic and membrane fractions were prepared to investigate the re-distribution or PKC isoforms. […] (See FIG. 5A).

[6] = target: T1, KDR receptor (Homo sapiens, UniProt P35968); experiment: RIA binding assay, KDR receptor
T1 construct: host or cells: CHO cells

[7] = target: Flt-1 receptor (Homo sapiens, UniProt P17948); experiment: RIA binding assay, FLT-1 receptor
Description: The results are shown below in Table 6.

[8] = coronary artery disease patients, intracoronary or intravenous infusion at 0.05 microgram/Kg body weight/minute
Description: In one aspect, the invention provides methods for treating a NO associated disorder or condition such as hypertension, diabetes, thrombosis, angina, heart failure or atherosclerosis.

[9] = angina patients, prolonged time point, early results
Description: Luscher TF (1992) Br. J. Clin. Pharmacol. 34 Suppl. 1:29S–35S.

[10] = system: eNOS; experiment: Association of proteins with eNOS (immunoprecipitation, Western blot) in endothelial cells; details: VEGF 1-60 minutes

Flt-1 receptor (Homo sapiens, UniProt P17948), sequence (P17948 27-1338): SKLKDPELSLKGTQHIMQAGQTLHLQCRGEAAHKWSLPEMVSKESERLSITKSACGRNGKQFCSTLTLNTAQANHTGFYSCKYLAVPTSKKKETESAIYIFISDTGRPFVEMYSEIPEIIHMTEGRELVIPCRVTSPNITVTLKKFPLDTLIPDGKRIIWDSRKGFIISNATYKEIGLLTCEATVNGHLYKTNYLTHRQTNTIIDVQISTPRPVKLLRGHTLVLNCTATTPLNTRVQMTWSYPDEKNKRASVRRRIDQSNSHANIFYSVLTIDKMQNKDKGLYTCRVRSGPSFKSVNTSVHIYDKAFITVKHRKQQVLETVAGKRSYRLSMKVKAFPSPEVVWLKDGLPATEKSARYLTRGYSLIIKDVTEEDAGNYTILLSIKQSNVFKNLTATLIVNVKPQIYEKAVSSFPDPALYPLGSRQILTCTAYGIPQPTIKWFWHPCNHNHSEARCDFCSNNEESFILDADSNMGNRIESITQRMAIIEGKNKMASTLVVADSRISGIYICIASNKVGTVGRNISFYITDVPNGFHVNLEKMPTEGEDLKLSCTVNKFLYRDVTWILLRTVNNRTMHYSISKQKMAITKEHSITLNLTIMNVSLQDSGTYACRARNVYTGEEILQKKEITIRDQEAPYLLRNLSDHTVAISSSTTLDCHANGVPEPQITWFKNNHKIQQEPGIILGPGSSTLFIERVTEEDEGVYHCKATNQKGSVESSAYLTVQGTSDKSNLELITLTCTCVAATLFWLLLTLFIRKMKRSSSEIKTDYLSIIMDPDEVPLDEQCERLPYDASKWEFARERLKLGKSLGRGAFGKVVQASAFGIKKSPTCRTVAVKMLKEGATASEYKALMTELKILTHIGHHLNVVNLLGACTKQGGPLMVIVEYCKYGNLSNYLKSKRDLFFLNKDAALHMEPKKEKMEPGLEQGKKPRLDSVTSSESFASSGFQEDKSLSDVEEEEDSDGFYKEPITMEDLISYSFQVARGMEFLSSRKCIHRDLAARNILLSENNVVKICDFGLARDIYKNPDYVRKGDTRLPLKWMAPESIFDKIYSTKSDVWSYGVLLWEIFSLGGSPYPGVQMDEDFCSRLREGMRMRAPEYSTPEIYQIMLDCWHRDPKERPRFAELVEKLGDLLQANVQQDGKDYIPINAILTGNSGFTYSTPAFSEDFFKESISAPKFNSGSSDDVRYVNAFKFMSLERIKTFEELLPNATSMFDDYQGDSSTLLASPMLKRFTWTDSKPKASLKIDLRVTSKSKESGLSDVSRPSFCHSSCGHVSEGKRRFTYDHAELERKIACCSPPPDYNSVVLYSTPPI
T1 sequence (P35968 20-1356): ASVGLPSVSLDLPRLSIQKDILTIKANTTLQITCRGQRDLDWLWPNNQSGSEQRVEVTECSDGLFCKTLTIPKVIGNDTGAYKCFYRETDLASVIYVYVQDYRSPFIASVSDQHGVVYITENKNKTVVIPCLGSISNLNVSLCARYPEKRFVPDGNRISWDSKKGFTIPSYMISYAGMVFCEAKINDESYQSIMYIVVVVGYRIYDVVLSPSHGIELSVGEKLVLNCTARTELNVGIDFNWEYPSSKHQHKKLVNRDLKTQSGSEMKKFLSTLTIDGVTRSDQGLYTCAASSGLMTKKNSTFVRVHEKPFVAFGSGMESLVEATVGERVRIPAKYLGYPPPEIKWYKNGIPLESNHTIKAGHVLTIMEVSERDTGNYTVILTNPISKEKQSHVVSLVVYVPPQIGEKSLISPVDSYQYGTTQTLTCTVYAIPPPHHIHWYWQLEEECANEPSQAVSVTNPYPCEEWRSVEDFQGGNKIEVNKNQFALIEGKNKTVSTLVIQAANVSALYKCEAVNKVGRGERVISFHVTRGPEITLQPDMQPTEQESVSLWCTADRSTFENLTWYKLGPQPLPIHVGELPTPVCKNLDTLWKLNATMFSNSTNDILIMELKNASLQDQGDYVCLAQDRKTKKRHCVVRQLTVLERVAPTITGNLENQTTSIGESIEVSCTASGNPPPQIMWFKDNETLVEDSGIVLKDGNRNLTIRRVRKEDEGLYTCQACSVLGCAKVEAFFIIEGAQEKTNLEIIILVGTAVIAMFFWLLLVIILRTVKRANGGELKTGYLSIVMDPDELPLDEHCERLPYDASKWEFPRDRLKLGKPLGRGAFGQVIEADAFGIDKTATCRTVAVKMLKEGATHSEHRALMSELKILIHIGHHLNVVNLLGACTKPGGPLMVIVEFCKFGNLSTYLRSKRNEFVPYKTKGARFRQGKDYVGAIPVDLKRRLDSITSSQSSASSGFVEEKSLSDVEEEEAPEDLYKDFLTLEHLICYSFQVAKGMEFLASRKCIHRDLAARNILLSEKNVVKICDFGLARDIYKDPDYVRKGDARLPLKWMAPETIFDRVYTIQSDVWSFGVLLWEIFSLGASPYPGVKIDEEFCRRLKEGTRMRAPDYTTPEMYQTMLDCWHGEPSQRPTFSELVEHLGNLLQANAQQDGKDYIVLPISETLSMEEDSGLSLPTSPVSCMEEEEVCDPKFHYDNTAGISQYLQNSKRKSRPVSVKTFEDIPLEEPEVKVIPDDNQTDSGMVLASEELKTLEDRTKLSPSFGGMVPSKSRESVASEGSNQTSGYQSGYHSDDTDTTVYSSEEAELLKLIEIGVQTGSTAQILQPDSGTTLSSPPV
Flt-1 receptor, sequence (P17948 27-327 limits assumed): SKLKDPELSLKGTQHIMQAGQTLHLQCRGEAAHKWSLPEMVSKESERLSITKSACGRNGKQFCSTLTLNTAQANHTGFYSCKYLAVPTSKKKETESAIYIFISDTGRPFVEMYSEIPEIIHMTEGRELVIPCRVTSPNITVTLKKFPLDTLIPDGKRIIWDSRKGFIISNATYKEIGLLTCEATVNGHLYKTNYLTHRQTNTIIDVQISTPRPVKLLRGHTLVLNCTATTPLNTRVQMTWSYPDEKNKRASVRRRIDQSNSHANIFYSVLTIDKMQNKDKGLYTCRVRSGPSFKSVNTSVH

## VEGF110: heparin binding domain-deficient variant made from VEGF165 by limited proteolytic digestion with plasmin
[1]; 2 days
  eNOS expression with KDR-specific VEGF variants: induced a similar degree of eNOS expression
[1]
  eNOS expression with VEGF forms and receptor-selective variants: induced a similar degree of eNOS expression; also recorded: induce eNOS up-regulation

## CO[C@H]1[C@@H](OC)C[C@H](C)[C@@H](OC)C2=CC(=O)C=C(NC(=O)/C(C)=C/C=C\[C@H](OC)[C@@H](OC(N)=O)/C(C)=C/[C@@H]1C)C2=O [herbimycin A, reference compound]
[1]; 2 days
  effect of signalling inhibitors on VEGF-induced eNOS expression: blocked VEGF-induced eNOS expression

## COC(=O)[C@@H](N)CCCNC(=N)N[N+](=O)[O-] [L-NAME, L-N^G-Nitroarginine methyl ester, reference compound]
[1]
  eNOS expression, time course: sustained increase

## EGF: recombinant human epidermal growth factor (NSDSECPLSHDGYCLHDGVCMYIEALDKYACNCVVGYIGERCQYRDLKWWELR; Epidermal growth factor; UniProt P01133 971-1023, looked up)
[1]; 2 days
  eNOS expression with angiogenic factors: no significant effect

## HGF: heterodimeric form of recombinant human hepatocyte growth factor
[1]; 2 days
  eNOS expression with angiogenic factors: capable of increasing eNOS expression

## LK-VRB-2f: full length 1-165 VEGF variant, D63S/G65M/L66R
[1]; 2 days
  eNOS expression with KDR-specific VEGF variants: markedly up-regulated eNOS expression

## FGF: Recombinant human fibroblast growth factor (FGF) basic
[1]; 2 days
  eNOS expression with angiogenic factors: no significant effect

## CC(C)c1cc(/C=C(\C#N)C(=O)NCCCc2ccccc2)cc(C(C)C)c1O [SU1498, reference compound]
[1]; 100 μM, 500 pM rhVEGF, 2 days
  effect on VEGF-induced eNOS up-regulation at high concentration: completely blocked
[1]; 2 days
  effect on VEGF-induced eNOS expression, KDR tyrosine kinase inhibitor: dose-dependent prevention
[1]; 2 days, listed as SU-149 g
  effect on VEGF-induced eNOS expression, KDR tyrosine kinase inhibitor: dose dependent inhibition

## TGF-beta1: recombinant human transforming growth factor
[1]; 2 days
  eNOS expression with angiogenic factors: reduced endogenous eNOS expression

## Cc1ccc(-c2nn(C(C)(C)C)c3ncnc(N)c23)cc1 [PP1, reference compound]
[1]; 2 days
  effect of signalling inhibitors on VEGF-induced eNOS expression: also blocked eNOS expression

## COC[C@H]1OC(=O)c2coc3c2[C@@]1(C)C1=C(C3=O)[C@@H]2CCC(=O)[C@@]2(C)C[C@H]1OC(C)=O [Wortmannin, wortmannin, reference compound]
[1]; 2 days
  effect of signalling inhibitors on VEGF-induced eNOS expression: no significant effect

## O=c1c(-c2ccc(O)cc2)coc2cc(O)cc(O)c12 [genistein, reference compound]
[1]; 2 days
  effect of signalling inhibitors on VEGF-induced eNOS expression: blocked VEGF-induced eNOS expression

## LK-VRB-2s*: VEGF (1-109) variant, D63S/G65M/L66R
[1]; 2 days
  eNOS expression with KDR-specific VEGF variants: markedly up-regulated eNOS expression
[2]
  IC50: > 400 nM

## VEGF
[1]
  eNOS expression, time course: time-dependent but transient increase; also recorded: time-dependent increase in eNOS expression
[1]; 2 days
  eNOS expression with KDR-specific VEGF variants: induced a similar degree of eNOS expression
[1]; 2 days (48 hours) post exposure to 500 pM VEGF
  peak eNOS expression: 5.5 fold
[1]; dose-dependent up-regulation
  concentration giving maximal increase of eNOS: 500 pM
[1]; listed as VEGF165
  eNOS expression with VEGF forms and receptor-selective variants: induced a similar degree of eNOS expression; also recorded: induce eNOS up-regulation
[3]; 0-60 min
  eNOS activity, acute treatment: time-dependent increase
[3]; 2 days VEGF
  eNOS activity in treated cells versus untreated control cells: about 5 fold
[4]
  eNOS up-regulation in PAE/FLT-1 cells: not in FLT-1 transfected PAE (PAE/FLT) cells; also recorded: not in FLT-1 containing PAE cells
[5]
  re-distribution of PKC isoforms from cytosolic to membrane fractions: rapid re-distribution
[6]
  Relative Binding Affinity KDR Receptor: 1 (97 pM)
[7]; relative to Native VEGF 165
  Relative Binding Affinity FLT-1 Receptor: 1
[7]; value in brackets, read-out: Binding affinity FLT-1 Receptor
  IC50: 0.037 nM
[8]
  mean arterial pressure: dose-rate dependent reduction in mean arterial pressure
[9]
  angina class, angina frequency, treadmill times versus placebo: trends of improvement
[10]
  eNOS association levels of caveolin and PLC-γ: significantly reduces; also recorded: induces dissociation
  levels of Hsp90 and Hsp70 associated with eNOS: increase the levels of Hsp90 and Hsp70 associated with eNOS; also recorded: increase association

## CCCCCCCCCCCCCC(=O)O[C@@H]1[C@@H](C)[C@@]2(O)[C@@H](C=C(CO)C[C@]3(O)C(=O)C(C)=C[C@@H]23)[C@@H]2C(C)(C)[C@]12OC(C)=O [PMA, phorbol 12-myristate 13-acetate, reference compound]
[1]
  eNOS levels after PKC activation: time-dependent (FIG. 5C) and dose-dependent (data not shown) increase in eNOS levels; also recorded: increased eNOS levels
